From patent publication US20250296971A1, “GASTRIC INHIBITORY PEPTIDE RECEPTOR LIGANDS” (priority 2021, published 2025)
Read-outs that look alike come from different tables or passages of the source. *1 amine or outer side, *2 acyl side, *3 side chain or, on linkers, in order; H or OH if unused. Where a SMILES comes first, the peptide text is derived from it. Bridges are numbered along the chain shown (N, C = ends). [ ]: non-standard residue; d: D form. The star is where a group is joined. X3 = O=C(O)CN1CCN(CC(=O)O)CCN(CC(=O)NCCCOCCOCCOCCCN*)CCN(CC(=O)O)CC1; NH(1-deoxy-D-glucityl) = OC[C@@H](O)[C@@H](O)[C@H](O)[C@@H](O)CN*; DOTA = O=C(O)CN1CCN(CC(=O)O)CCN(CC(=O)*)CCN(CC(=O)O)CC1; Trp(5-Cl) = N[C@@H](Cc1c[nH]c2ccc(Cl)cc12)C(=O)O; Pyridine(2,6-diCH2) = c1cc(C[*:1])nc(C[*:2])c1; X10 = O=C(CN(CC(=O)NC(CO)CO)CC(=O)*)NC(CO)CO; Pro(4S-NH2) = N[C@@H]1CN[C@H](C(=O)O)C1; Pro(4R-NH2) = N[C@H]1CN[C@H](C(=O)O)C1; Glutaryl = O=C(CCCC(=O)[*:2])[*:1]; X6 = c1cc(CSCCN[*:2])nc(C[*:1])c1; X7 = c1cc(CSCCN[*:2])cc(C[*:1])c1; Cya = N[C@@H](CS(=O)(=O)O)C(=O)O; Hyp = O=C(O)[C@@H]1C[C@@H](O)CN1; X1 = O=C(CN1CCC(N[*:1])CC1)[*:2]; Suc = O=C(CCC(=O)[*:2])[*:1]; hLys = NCCCCC[C@H](N)C(=O)O; NHCH(CH2OH)2 = OCC(CO)N*; Api = NC1(C(=O)O)CCNCC1; Thp = NC1(C(=O)O)CCOCC1; Aib = CC(C)(N)C(=O)O

How the values were obtained:
[1] = target: T1, human GIP receptor (bioGIPR) (Homo sapiens, UniProt P48546); test: Surface plasmon resonance (SPR) based binding assay; conditions: Single Cycle Kinetic mode, 25° C.; for Kd: SPR, 1:1 Langmuir binding model, read-out: pKD Category (converted); for t1/2 Category: SPR dissociation half-life
T1 construct: Biotinylate extracellular of the human GIP receptor (bioGIPR, Proteros biostructures GmbH, lot #02/2b); purchased Proteros biostructures GmbH lot #02/2b
T1 sequence (P48546 22-138 limits assumed): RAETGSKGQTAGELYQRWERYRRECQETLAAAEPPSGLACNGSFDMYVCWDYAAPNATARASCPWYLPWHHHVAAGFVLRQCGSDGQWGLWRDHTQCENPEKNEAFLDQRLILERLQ
Protocol: Surface plasmon resonance (SPR) studies were performed using a Biacore™ T200 SPR system. Briefly, polarized light is directed towards a gold-labeled sensor surface, and minimum intensity reflected light is detected. The angle of reflected light changes as molecules bind and dissociate.
Biotinylate extracellular of the human GIP receptor (bioGIPR, Proteros biostructures GmbH, lot #02/2b) was captured on a biotin capture chip (Biotin CAPture Kit, Series S, GE Healthcare, Cat #28-9202-34). bioGIPR was diluted in Running Buffer (HBST from Xantec Analytics; […], 0.05% Tween20, 0.1% DMSO) to a final concentration 100 nM and than flushed over the Fc-capture chip to immobilized ˜3500 RUs.
Stock solutions of test compounds were prepared by dissolving each compound in DMSO. DMSO stock solution were diluted 1:1000 in Running Buffer without DMSO. Further sequential dilutions were made with Running Buffer containing 0.1% DMSO. SPR binding analyses were performed in Single Cycle Kinetic (SCK) mode at 25° C. Flow cell without immobilized bioGIPR served as reference flowcell. After each SCK run, bioGIRP and the Biotin Capture Reagent was removed with Regeneration Solution (6 M Guanidium, 0.75 M NaOH).
In between every three SCK measurements, a blank run with Running Buffer instead of test compound was included to correct for baseline drifts (double blanking method).
For each test compound, SPR raw data in the form of resonance units (RU) were plotted as sensorgrams using the Biacore™ T200 control software. The signal from the blank sensorgram was subtracted from that of the test compound sensorgram (blank corrected). The blank corrected sensorgram was corrected for baseline drift by subtracting the sensorgram of a SCK run without the test compound (running buffer only). The association rate (kon), dissociation rate (koff), dissociation constant (KD), and t1/2 were calculated from blank corrected SPR data using the 1:1 Langmuir binding model from the Biacore™ T200 evaluation software. Raw data and fit results were imported as text files in IDBS. The pKD value (negative decadic logarithm of dissociation constant) was calculated in the IDBS excel template.

[2] = target: T2, GIPR (CHO-K1-hGIPR cells) (Homo sapiens, UniProt P48546); test: FACS binding assay; conditions: read-out: pIC50 Category (converted)
T2 construct: host or cells: CHO-K1
T2 sequence (P48546 22-466): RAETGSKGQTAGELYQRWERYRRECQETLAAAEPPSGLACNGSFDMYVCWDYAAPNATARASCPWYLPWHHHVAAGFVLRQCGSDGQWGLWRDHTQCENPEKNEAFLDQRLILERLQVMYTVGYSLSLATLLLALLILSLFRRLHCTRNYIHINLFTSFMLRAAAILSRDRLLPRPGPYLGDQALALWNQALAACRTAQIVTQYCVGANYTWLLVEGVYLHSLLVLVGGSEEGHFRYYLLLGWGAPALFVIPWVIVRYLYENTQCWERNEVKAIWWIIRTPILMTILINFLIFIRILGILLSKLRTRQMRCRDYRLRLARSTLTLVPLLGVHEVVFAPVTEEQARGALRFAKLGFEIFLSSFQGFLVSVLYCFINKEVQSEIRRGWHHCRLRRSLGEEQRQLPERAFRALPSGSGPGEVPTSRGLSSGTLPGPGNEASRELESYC
Outline: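 CHO-K1 cells expressing human GIPR, washed in PBS/1% FCS, then stained with 1 μg/mL APC-streptavidin for 30 min on ice.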

[3] = competition with 20 nM GIP-057, 4° C., 1 hour
[4] = competition with 20 nM GIP-057, 4° C. for 1 hour

Compound	Kd [1] [nM]	IC50 [2, 3] [nM]	t1/2 Category [1]	IC50 [2, 4] [nM]
CC[C@H](C)[C@@H]1NC(=O)[C@H](CC(C)C)NC(=O)C(C)(C)NC(=O)[C@@H](NC(=O)[C@@H](CC(C)C)NC(=O)[C@H](CCC(=O)O)NC(=O)[C@@H]2C[C@@H](O)CN2C(=O)[C@H](Cc2c[nH]c3ccc(Cl)cc23)NC(=O)[C@H](Cc2c[nH]c3ccccc23)NC(=O)[C@H](CS(=O)(=O)O)NC(C)=O)CSCc2cccc(n2)CSCCNC1=O [GIP-179, Ac-Cya-Trp-5Clw-Hyp-Glu-leu-[Cys(2Lut)-Aib-Leu-Ile-AET]] (Ac-[Cya]W[Trp(5-Cl)][Hyp]E[dL]C[Aib]LI; linker 7-C via X6)	< 1	< 10	–	–
CC[C@H](C)[C@@H]1NC(=O)[C@H](CC(C)C)NC(=O)C2(CCN(C(=O)CN3CCN(CC(=O)O)CCN(CC(=O)O)CCN(CC(=O)O)CC3)CC2)NC(=O)[C@@H](NC(=O)[C@@H](CC(C)C)NC(=O)[C@H](CCC(=O)O)NC(=O)[C@@H]2C[C@@H](N)CN2C(=O)[C@H](Cc2c[nH]c3ccc(Cl)cc23)NC(=O)[C@H](Cc2c[nH]c3ccccc23)NC(=O)[C@H](CC(=O)O)NC(=O)CN(CC(=O)NC(CO)CO)CC(=O)NC(CO)CO)CSCc2cccc(n2)CSC[C@@H](C(=O)NC2CCN(CC(=O)N[C@H](CCC(=O)NC(CO)CO)C(=O)NC(CO)CO)CC2)NC1=O [GIP-374, NTASEROL-Asp-Trp-5Clw-Tap-Glu-leu-[Cys(2Lut)-Apc(DOTA)-Leu-Ile-Cys]-APAc-GLUSEROL] (X10-DW[Trp(5-Cl)][Pro(4R-NH2)]E[dL]C[Api](DOTA)LIC[X1][dE](NHCH(CH2OH)2)-{NHCH(CH2OH)2}; linker 7-11 via Pyridine(2,6-diCH2))	< 1	–	A (t1/2 values>15 min)	< 10
CC[C@H](C)[C@@H]1NC(=O)[C@H](CC(C)C)NC(=O)C2(CCOCC2)NC(=O)[C@@H](NC(=O)[C@@H](CC(C)C)NC(=O)[C@H](CCCCCN)NC(=O)[C@@H]2C[C@@H](O)CN2C(=O)[C@H](Cc2c[nH]c3ccc(Cl)cc23)NC(=O)[C@H](Cc2c[nH]c3ccccc23)NC(=O)[C@H](CC(=O)O)NC(C)=O)CSCc2cccc(n2)CSC[C@@H](C(N)=O)NC1=O [GIP-378, Ac-Asp-Trp-5Clw-Hyp-Hly-leu-[Cys(2Lut)-Thp-Leu-Ile-Cys]-NH2] (Ac-DW[Trp(5-Cl)][Hyp][hLys][dL]C[Thp]LIC-NH2; linker 7-11 via Pyridine(2,6-diCH2))	1 to 7.94	–	A (t1/2 values>15 min)	< 10
CC[C@H](C)[C@@H]1NC(=O)[C@H](CC(C)C)NC(=O)C2(CCN(C(=O)CN3CCN(CC(=O)O)CCN(CC(=O)O)CCN(CC(=O)O)CC3)CC2)NC(=O)[C@@H](NC(=O)[C@@H](CC(C)C)NC(=O)[C@H](CCC(=O)O)NC(=O)[C@@H]2C[C@@H](O)CN2C(=O)[C@H](Cc2c[nH]c3ccc(Cl)cc23)NC(=O)[C@H](Cc2c[nH]c3ccccc23)NC(=O)CCC(=O)O)CSCc2cccc(n2)CSCCNC1=O [GIP-110, HO-Succinyl-Trp-5Clw-Hyp-Glu-leu-[Cys(2Lut)-Apc(DOTA)-Leu-Ile-AET]] (Suc-W[Trp(5-Cl)][Hyp]E[dL]C[Api](DOTA)LI; linker 6-C via X6)	< 1	< 10	A (t1/2 values>15 min)	–
CC[C@H](C)[C@@H]1NC(=O)[C@H](CC(C)C)NC(=O)C2(CCN(C(=O)CN3CCN(CC(=O)O)CCN(CC(=O)O)CCN(CC(=O)O)CC3)CC2)NC(=O)[C@@H](NC(=O)[C@@H](CC(C)C)NC(=O)[C@H](CCC(=O)O)NC(=O)[C@@H]2C[C@@H](N)CN2C(=O)[C@H](Cc2c[nH]c3ccc(Cl)cc23)NC(=O)[C@H](Cc2c[nH]c3ccccc23)NC(=O)[C@H](CC(=O)O)NC(=O)CCCC(=O)NC[C@H](O)[C@@H](O)[C@H](O)[C@H](O)CO)CSCc2cccc(n2)CSC[C@@H](C(=O)NC2CCN(CC(=O)N[C@H](CCC(=O)NC(CO)CO)C(=O)NC(CO)CO)CC2)NC1=O [GIP-372, AGLU-Glutar-Asp-Trp-5Clw-Tap-Glu-leu-[Cys(2Lut)-Apc(DOTA)-Leu-Ile-Cys]-APAc-GLUSEROL] ({NH(1-deoxy-D-glucityl)-Glutaryl}-DW[Trp(5-Cl)][Pro(4R-NH2)]E[dL]C[Api](DOTA)LIC[X1][dE](NHCH(CH2OH)2)-{NHCH(CH2OH)2}; linker 7-11 via Pyridine(2,6-diCH2))	< 1	–	A (t1/2 values>15 min)	< 10
CC[C@H](C)[C@@H]1NC(=O)[C@H](CC(C)C)NC(=O)C(C)(C)NC(=O)[C@@H](NC(=O)[C@@H](CC(C)C)NC(=O)[C@H](CCC(=O)O)NC(=O)[C@@H]2C[C@@H](N)CN2C(=O)[C@H](Cc2c[nH]c3ccc(Cl)cc23)NC(=O)[C@H](Cc2c[nH]c3ccccc23)NC(=O)[C@H](CC(=O)O)NC(=O)CCC(=O)NCCCOCCOCCOCCCNC(=O)CN2CCN(CC(=O)O)CCN(CC(=O)O)CCN(CC(=O)O)CC2)CSCc2cccc(c2)CSCCNC1=O [GIP-095, DOTA-Ttds-Asp-Trp-5Clw-Tap-Glu-leu-[Cys(3MeBn)-Aib-Leu-Ile-AET]] ({X3-Suc}-DW[Trp(5-Cl)][Pro(4R-NH2)]E[dL]C[Aib]LI; linker 7-C via X7)	< 1	< 10	A (t1/2 values>15 min)	–
CC[C@H](C)[C@@H]1NC(=O)[C@H](CC(C)C)NC(=O)C2(CCOCC2)NC(=O)[C@@H](NC(=O)[C@@H](CC(C)C)NC(=O)[C@H](CCC(=O)O)NC(=O)[C@@H]2C[C@@H](O)CN2C(=O)[C@H](Cc2c[nH]c3ccc(Cl)cc23)NC(=O)[C@H](Cc2c[nH]c3ccccc23)NC(=O)[C@H](CC(=O)O)NC(=O)CCCC(=O)NC[C@H](O)[C@@H](O)[C@H](O)[C@H](O)CO)CSCc2cccc(n2)CSC[C@@H](C(=O)NC2CCN(CC(=O)N[C@H](CCC(=O)NC[C@H](O)[C@@H](O)[C@H](O)[C@H](O)CO)C(=O)N[C@@H](CCCCNC(=O)CN3CCN(CC(=O)O)CCN(CC(=O)O)CCN(CC(=O)O)CC3)C(N)=O)CC2)NC1=O [GIP-004, AGLU-Glutar-Asp-Trp-5Clw-Hyp-Glu-leu-[Cys(2Lut)-Thp-Leu-Ile-Cys]-APAc-glu(AGLU)-Lys(DOTA)-NH2] ({NH(1-deoxy-D-glucityl)-Glutaryl}-DW[Trp(5-Cl)][Hyp]E[dL]C[Thp]LIC[X1][dE](NH(1-deoxy-D-glucityl))K(DOTA)-NH2; linker 7-11 via Pyridine(2,6-diCH2))	< 1	< 10	A (t1/2 values>15 min)	–
CC[C@H](C)[C@@H]1NC(=O)[C@H](CC(C)C)NC(=O)C(C)(C)NC(=O)[C@@H](NC(=O)[C@@H](CC(C)C)NC(=O)[C@H](CCC(=O)O)NC(=O)[C@@H]2C[C@H](N)CN2C(=O)[C@H](Cc2c[nH]c3ccc(Cl)cc23)NC(=O)[C@H](Cc2c[nH]c3ccccc23)NC(=O)[C@H](CC(=O)O)NC(=O)CCC(=O)NCCCOCCOCCOCCCNC(=O)CN2CCN(CC(=O)O)CCN(CC(=O)O)CCN(CC(=O)O)CC2)CSCc2cccc(c2)CSCCNC1=O [GIP-096, DOTA-Ttds-Asp-Trp-5Clw-4Ap-Glu-leu-[Cys(3MeBn)-Aib-Leu-Ile-AET]] ({X3-Suc}-DW[Trp(5-Cl)][Pro(4S-NH2)]E[dL]C[Aib]LI; linker 7-C via X7)	< 1	< 10	A (t1/2 values>15 min)	–
